Laboratory results from patent US4454158A, “Allyl amine MAO inhibitors” (Merrell Toraude et Compagnie, priority 1981, dated 1984).
pIC50: −log10 of the molar value. Read-outs that look alike come from different tables or passages of the source.

What was measured:
MAO [1] = assay: Inhibition of MAO - Ex vivo, rat (14C p-tyramine substrate); format: in vivo; settings: for % Inhibition of MAO - Brain: 18 hr
Description: (§1) The ability of a compound of Formula I or II to inhibit MAO can be determined ex vivo by the following procedure:
The test compound is administered intraperitoneally (ip), intravenously (iv), or orally (po) to rats or mice and the animals are killed at various times after treatment. […] MAO activity is determined in the homogenates using ^14 C p-tyramine, as the substrate. […] Selectivity can be determined by repeating the above-described test using either ^14 C 5-hydroxytryptamine (for MAO-A) or ^14 C phenethylamine (for MAO-B) as the substrate for determining the % inhibition

MAO [2] = assay: Inhibition of MAO - In vivo: change in levels of endogenous MAO substrates and metabolites in mouse brain; design: species or system mice
Description: The ability of a compound of Formula I or II to inhibit MAO can be determined in vivo in mice according to the following procedure, wherein changes in concentration of the endogenous MAO substrates and the metabolites thereof are assayed.
Mice are given an intraperitoneal injection of the test compound and 2 hours or 16 hours later the animals are killed. The levels of dopamine, dihydroxyphenylacetic acid (DOPAC), 5-hydroxytryptamine (5-HT), and 5-hydroxyindole-3-acetic acid (5-HIAA) in brain homogenates are determined by the method of J. Wagner et al, J. Chromatog. 164, 41 (1979) and P. Bey et al, Br. J. Pharmac., 70, 571 (1980).

depression = settings: literature; cited from earlier work
cheese effect = settings: low dosages; literature; cited from earlier work
Parkinson's disease = settings: literature; cited from earlier work
[3] = test system: heart rate response to p-tyramine; assay: Cheese effect: potentiation of heart-rate response to p-tyramine in rats; settings: rat; for risk of producing the cheese effect (in words): in vivo
Description: The following test procedure can be employed to assess the potential of a compound of Formula I or II for producing the "cheese effect":
Rats are administered an intravenous injection of the test compound at various dosage levels, and 30 minutes later the rats are challenged with several intravenous or intraduodenal dodes of p-tyramine. The heart rate response is measured.

MAO [4] = assay: Inhibition of MAO - In vitro (14C p-tyramine substrate, partially purified rat brain mitochondria); format: biochemical; settings: tested as hydrochloride salt, read-out: IC50 (MAO inhibitory activity - In vitro)
Description: (A) The ability of a compound of Formula I or II to inhibit MAO can be determined in vitro by the method of A. Christmas et al, Br. J. Pharmacol. 45, 490 (1972) in partially purified mitochondria from rat brain using ^14 C p-tyramine as the substrate.

MAO-B versus MAO-A = assay: Selectivity of MAO inhibitors - In vitro (14C 5-hydroxytryptamine for MAO-A, 14C phenethylamine for MAO-B); format: biochemical, rat; settings: for Selectivity (ratio of inhibitory activity against MAO-B versus MAO-A): in vitro, rat brain mitochondria
Description: Mitochondria are prepared from rat brain by homogenation in phosphate buffer (0.1 M, pH 7.2) followed by differential centrifugation. The mitochondria are suspended in the same buffer, the test compound is added at the desired concentration, and the system is incubated. […] Christmas, et al, supra).
Selectivity is expressed as the ratio of the inhibitory activity against MAO-B versus the inhibitory activity against MAO-A.

MAO-A and MAO-B = settings: literature; cited from earlier work
MAO [5] = assay: Inhibition of MAO - Ex vivo, mouse (14C p-tyramine substrate); format: in vivo; settings: 24 hr
Description: as §1
The test compound is administered intraperitoneally (ip), intravenously (iv), or orally (po) to rats or mice and the animals are killed at various times after treatment. The brain, heart, liver, or duodenum is removed and either a crude homogenate or a mitochondrial fraction, described in Example 28, Part A, is prepared. MAO activity is determined in the homogenates using ^14 C p-tyramine, as the substrate. Table III gives the results of the testing of certain compounds according to the above-described procedure. Selectivity can be determined by repeating the above-described test using either ^14 C 5-hydroxytryptamine (for MAO-A) or ^14 C phenethylamine (for MAO-B) as the substrate for determining the % inhibition

## C#CCN(C)[C@H](C)Cc1ccccc1 [L-deprenyl, reference compound]
MAO [1]; 1.0 mg/kg po, 2 hr
  % Inhibition of MAO - Duodenum: 62%
  % Inhibition of MAO - Heart: 48%
MAO [2]; 10 mg/kg ip, 2 hr
  % Change (compared to control) - 5-HIAA: +9%
  % Change (compared to control) - 5-HT: +18%
  % Change (compared to control) - DOPAC: -21%
  % Change (compared to control) - Dopamine: +10%
depression
  clinical effectiveness as antidepressant (in words): clinically effective antidepressant agents
Cheese effect
  cheese effect (in words): is not observed at the low dosages where preferential inhibition of MAO-B occurs
Parkinson's disease
  potentiation of L-DOPA in Parkinson's disease (in words): potentiate L-DOPA for the treatment of Parkinson's disease without producing peripheral side effects
[3]; dose 0.1 (iv), p-tyramine i.d.
  Potentiation of heart-rate response to p-tyramine: no effect
[3]; dose 0.1 (iv), p-tyramine i.v.
  Potentiation of heart-rate response to p-tyramine: 1.3 fold
[3]; dose 1.0 (iv), p-tyramine i.d.
  Potentiation of heart-rate response to p-tyramine: 2.1 fold
[3]; dose 1.0 (iv), p-tyramine i.v.
  Potentiation of heart-rate response to p-tyramine: 2.2 fold

## COc1ccc(/C(=C\F)CN)cc1 [(E)-2-(4'-Methoxy)phenyl-3-fluoroallyl amine]
MAO [1]; 0.1 mg/kg iv, 2 hr
  % Inhibition of MAO - Duodenum: 80%
  % Inhibition of MAO - Heart: 50%
  % Inhibition of MAO - Liver: 30%
MAO [1]; 1.0 mg/kg po
  % Inhibition of MAO - Brain: 86%
MAO [1]; 5.0 mg/kg po
  % Inhibition of MAO - Brain: 97%
[3]; dose 0.1 (iv), p-tyramine i.d.
  Potentiation of heart-rate response to p-tyramine: 2.0 fold
[3]; dose 0.1 (iv), p-tyramine i.v.
  Potentiation of heart-rate response to p-tyramine: 1.4 fold
[3]; dose 1.0 (iv), p-tyramine i.d.
  Potentiation of heart-rate response to p-tyramine: 4.6 fold
[3]; dose 1.0 (iv), p-tyramine i.v.
  Potentiation of heart-rate response to p-tyramine: 5.2 fold
[3]
  risk of producing the cheese effect (in words): significantly decreased risk

## C=C(CN)c1cccc(OC)c1 [2-(3-methoxy)phenylallylamine, 2-(3'-Methoxy)phenylallylamine]
MAO [4]
  pIC50: 5.00

## CCNC/C(=C/F)c1ccc(OC)c(OC)c1 [(E)-N-ethyl 2-(3',4'-dimethoxy)phenyl-3-fluoroallylamine]
MAO [4]
  pIC50: 4.15

## COc1ccc(/C(=C\F)CN)cc1OC [(E)-2-(3',4'-Dimethoxy)phenyl-3-fluoroallylamine]
MAO [4]
  pIC50: 5.60
MAO-B versus MAO-A
  selectivity for MAO-B as compared to MAO-A (in words): marked selectivity for MAO-B as compared to MAO-A
  Selectivity (ratio of inhibitory activity against MAO-B versus MAO-A): 1000
MAO-B versus MAO-A; listed as (E)-2-(3',4'-dimethoxyphenyl)-3-fluoroallylamine
  selectivity for MAO-B as compared to MAO-A (in words): selective inhibitors of MAO-B
MAO [1]; 0.5 mg/kg po
  % Inhibition of MAO - Brain: 79%
MAO [1]; 1.0 mg/kg iv, 2 hr
  % Inhibition of MAO - Duodenum: 40%
  % Inhibition of MAO - Heart: 17%
  % Inhibition of MAO - Liver: 58%
MAO [1]; 10.0 mg/kg po
  % Inhibition of MAO - Brain: 93%
MAO [2]; 10 mg/kg ip, 16 hr
  % Change (compared to control) - 5-HIAA: -8%
  % Change (compared to control) - 5-HT: +31%
  % Change (compared to control) - DOPAC: -62%
  % Change (compared to control) - Dopamine: +18%
MAO [2]; 50 mg/kg ip, 16 hr
  % Change (compared to control) - 5-HIAA: -32%
  % Change (compared to control) - 5-HT: +122%
  % Change (compared to control) - DOPAC: -85%
  % Change (compared to control) - Dopamine: +22%
[3]; dose 1.0 (iv), p-tyramine i.d.
  Potentiation of heart-rate response to p-tyramine: 2.5 fold
[3]; dose 1.0 (iv), p-tyramine i.v.
  Potentiation of heart-rate response to p-tyramine: 2.3 fold
[3]
  risk of producing the cheese effect (in words): significantly decreased risk

## NCC(=CBr)c1ccccc1 [2-phenyl-3-bromoallylamine, 2-Phenyl-3-bromoallylamine]
MAO [4]
  pIC50: 4.40

## NC/C(=C/Cl)c1ccccc1 [(E)-2-phenyl-3-chloroallylamine, (E)-2-Phenyl-3-chloroallylamine]
MAO [4]
  pIC50: 4.00

## Cc1cc(C(=O)NNCc2ccccc2)no1 [isocarboxazid]
MAO-A and MAO-B
  preferential inhibition of MAO-A or MAO-B (in words): not preferential in their action upon MAO

## NC/C(=C/F)c1ccccc1 [(E)-2-phenyl-3-fluoroallylamine, (E)-2-Phenyl-3-fluoroallylamine]
MAO [4]
  pIC50: 6.15
MAO-B versus MAO-A
  Selectivity (ratio of inhibitory activity against MAO-B versus MAO-A): 10
MAO [1]; 0.1 mg/kg iv, 24 hr
  % Inhibition of MAO - Duodenum: 67%
  % Inhibition of MAO - Heart: 85%
  % Inhibition of MAO - Liver: 48%
MAO [5]; 0.5 mg/kg ip
  % Inhibition of MAO - Brain: 45%
  % Inhibition of MAO - Heart: 91%
MAO [5]; 1.0 mg/kg ip
  % Inhibition of MAO - Brain: 68%
  % Inhibition of MAO - Heart: 97%
MAO [2]; 1 mg/kg ip, 2 hr
  % Change (compared to control) - 5-HIAA: -35%
  % Change (compared to control) - 5-HT: +41%
  % Change (compared to control) - DOPAC: -67%
  % Change (compared to control) - Dopamine: +15%
MAO [2]; 10 mg/kg ip, 2 hr
  % Change (compared to control) - 5-HIAA: -90%
  % Change (compared to control) - 5-HT: +90%
  % Change (compared to control) - DOPAC: -92%
  % Change (compared to control) - Dopamine: +32%
MAO [2]; 100 mg/kg ip, 2 hr
  % Change (compared to control) - 5-HIAA: -91%
  % Change (compared to control) - 5-HT: +96%
  % Change (compared to control) - DOPAC: -95%
  % Change (compared to control) - Dopamine: +19%
[3]; dose 0.1 (iv), p-tyramine i.d.
  Potentiation of heart-rate response to p-tyramine: 9.1 fold
[3]; dose 0.1 (iv), p-tyramine i.v.
  Potentiation of heart-rate response to p-tyramine: 8.4 fold

## NC/C(=C\F)c1ccccc1 [(Z)-2-phenyl-3-fluoroallylamine, (Z)-2-Phenyl-3-fluoroallylamine]
MAO [4]
  pIC50: 6.00

## NC/C(=C/F)Cc1ccccc1 [(E)-2-benzyl-3-fluoroallylamine, (E)-2-2-Benzyl-3-fluoroallylamine]
MAO [4]
  pIC50: 5.12
MAO-B versus MAO-A
  selectivity for MAO-B as compared to MAO-A (in words): marked selectivity for MAO-B as compared to MAO-A
  Selectivity (ratio of inhibitory activity against MAO-B versus MAO-A): 200

## COc1ccc(C/C(=C\F)CN)cc1 [(E)-2-(4'-Methoxy)benzyl-3-fluoroallylamine]
MAO [4]
  pIC50: 5.52
MAO-B versus MAO-A
  selectivity for MAO-B as compared to MAO-A (in words): marked selectivity for MAO-B as compared to MAO-A
  Selectivity (ratio of inhibitory activity against MAO-B versus MAO-A): 500
